Assay results published in BindingDB's records for patent US20240132480 (Cornell University, 2024).

Biological target: T1, Dihydrolipoyl dehydrogenase (Mycobacterium tuberculosis (strain ATCC 25618 / H37Rv), UniProt P9WHH9)
T1 sequence (P9WHH9 whole entry): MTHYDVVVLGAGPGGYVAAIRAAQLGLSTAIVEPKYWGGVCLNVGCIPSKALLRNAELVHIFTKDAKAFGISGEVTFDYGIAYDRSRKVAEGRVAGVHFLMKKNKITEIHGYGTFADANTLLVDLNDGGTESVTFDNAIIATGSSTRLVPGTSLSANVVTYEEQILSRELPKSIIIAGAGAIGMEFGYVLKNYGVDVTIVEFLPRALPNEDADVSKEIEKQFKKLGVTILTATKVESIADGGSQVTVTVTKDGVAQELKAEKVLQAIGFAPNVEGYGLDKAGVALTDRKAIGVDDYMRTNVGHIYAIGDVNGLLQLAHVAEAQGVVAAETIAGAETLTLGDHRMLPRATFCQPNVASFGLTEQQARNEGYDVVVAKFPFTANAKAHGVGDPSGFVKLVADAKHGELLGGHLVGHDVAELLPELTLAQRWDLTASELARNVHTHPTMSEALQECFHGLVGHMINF
Test: LPD Assay with 30 min preincubation

SMILES: CC#CCNC(=O)CN(C)S(=O)(=O)c1cc(C)cc2cc(C#N)[nH]c12 [US20240132480, Example 210]
- IC50: 38 nM
